Data from ChEMBL document CHEMBL3872257, “Multitarget drug design strategy against Alzheimer's disease: Homoisoflavonoid Mannich base derivatives serve as acetylcholinesterase and monoamine oxidase B dual inhibitors with multifunctional properties” (Bioorg Med Chem, 2017).
Active and inactive are the calls of the source. No cut-off for these calls is given here.

Experiments:
[1] = molecular target: Amyloid-beta precursor protein (Homo sapiens) (UniProt P05067); assay: Inhibition of self-mediated aggregation of amyloid beta (1 to 42 residues) (unknown origin) at 25 uM incubated for 24 hrs by Thioflavin T fluorescence assay relative to control
Amyloid-beta precursor protein (Homo sapiens), sequence (P05067 whole entry, the tested form may be a part): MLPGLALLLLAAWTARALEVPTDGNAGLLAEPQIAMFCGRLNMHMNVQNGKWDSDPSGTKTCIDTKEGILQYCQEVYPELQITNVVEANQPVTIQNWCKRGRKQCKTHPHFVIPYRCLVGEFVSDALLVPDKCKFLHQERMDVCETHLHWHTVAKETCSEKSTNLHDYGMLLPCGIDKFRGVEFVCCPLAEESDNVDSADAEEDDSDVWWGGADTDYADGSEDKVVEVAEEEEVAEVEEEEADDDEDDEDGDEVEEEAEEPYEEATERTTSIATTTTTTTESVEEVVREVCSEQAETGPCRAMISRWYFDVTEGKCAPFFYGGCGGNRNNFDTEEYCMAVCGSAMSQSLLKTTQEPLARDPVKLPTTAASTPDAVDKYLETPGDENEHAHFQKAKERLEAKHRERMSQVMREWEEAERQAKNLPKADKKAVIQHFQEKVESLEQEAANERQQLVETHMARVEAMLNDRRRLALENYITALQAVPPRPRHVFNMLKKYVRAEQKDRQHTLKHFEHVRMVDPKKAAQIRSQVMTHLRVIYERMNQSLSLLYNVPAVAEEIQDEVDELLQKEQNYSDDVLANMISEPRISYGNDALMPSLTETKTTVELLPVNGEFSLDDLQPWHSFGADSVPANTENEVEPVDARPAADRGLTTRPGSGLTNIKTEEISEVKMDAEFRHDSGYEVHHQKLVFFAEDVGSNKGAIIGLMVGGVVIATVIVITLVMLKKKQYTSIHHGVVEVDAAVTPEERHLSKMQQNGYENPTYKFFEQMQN

[2] = Antioxidant activity assessed as trolox equivalent of […]-induced radical scavenging activity preincubated for 15 mins followed by AAPH addition measured every minute for 120 mins by ORAC fluorescein assay; format: functional
[3] = Inhibition of copper-mediated aggregation of amyloid beta (1 to 42 residues) (unknown origin) at 25 uM incubated for 24 hrs by thioflavin-T fluorescence assay relative to control; format: physicochemical
[4] = molecular target: Acetylcholinesterase (Electrophorus electricus, UniProt O42275); assay: Inhibition of Electrophorus electricus AChE using acetylthiocholine iodide as substrate measured after 15 mins by Ellman's method
Acetylcholinesterase, sequence (O42275 whole entry): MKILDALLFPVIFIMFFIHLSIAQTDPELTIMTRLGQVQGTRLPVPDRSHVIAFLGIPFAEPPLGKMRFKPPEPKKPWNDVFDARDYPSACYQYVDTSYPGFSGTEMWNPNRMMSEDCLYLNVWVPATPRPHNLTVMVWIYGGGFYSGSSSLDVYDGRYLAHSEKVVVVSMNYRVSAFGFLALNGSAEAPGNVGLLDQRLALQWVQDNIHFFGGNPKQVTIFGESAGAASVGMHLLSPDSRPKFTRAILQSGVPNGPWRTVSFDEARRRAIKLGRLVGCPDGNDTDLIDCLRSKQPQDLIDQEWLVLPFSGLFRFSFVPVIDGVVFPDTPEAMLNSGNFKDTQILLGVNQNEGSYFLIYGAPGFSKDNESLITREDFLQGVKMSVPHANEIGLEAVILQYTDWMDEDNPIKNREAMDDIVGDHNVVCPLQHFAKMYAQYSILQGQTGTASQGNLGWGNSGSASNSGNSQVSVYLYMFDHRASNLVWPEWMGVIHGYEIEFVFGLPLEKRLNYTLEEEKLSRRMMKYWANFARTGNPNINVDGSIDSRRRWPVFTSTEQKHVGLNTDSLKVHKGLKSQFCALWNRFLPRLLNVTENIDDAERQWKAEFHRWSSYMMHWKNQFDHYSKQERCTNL

[5] = molecular target: Butyrylcholinesterase (Rattus norvegicus) (UniProt Q9JKC1); assay: Inhibition of rat serum BuChE at 50 uM measured after 15 mins by Ellman's method relative to control
Butyrylcholinesterase (Rattus norvegicus), sequence (Q9JKC1 as listed by the source): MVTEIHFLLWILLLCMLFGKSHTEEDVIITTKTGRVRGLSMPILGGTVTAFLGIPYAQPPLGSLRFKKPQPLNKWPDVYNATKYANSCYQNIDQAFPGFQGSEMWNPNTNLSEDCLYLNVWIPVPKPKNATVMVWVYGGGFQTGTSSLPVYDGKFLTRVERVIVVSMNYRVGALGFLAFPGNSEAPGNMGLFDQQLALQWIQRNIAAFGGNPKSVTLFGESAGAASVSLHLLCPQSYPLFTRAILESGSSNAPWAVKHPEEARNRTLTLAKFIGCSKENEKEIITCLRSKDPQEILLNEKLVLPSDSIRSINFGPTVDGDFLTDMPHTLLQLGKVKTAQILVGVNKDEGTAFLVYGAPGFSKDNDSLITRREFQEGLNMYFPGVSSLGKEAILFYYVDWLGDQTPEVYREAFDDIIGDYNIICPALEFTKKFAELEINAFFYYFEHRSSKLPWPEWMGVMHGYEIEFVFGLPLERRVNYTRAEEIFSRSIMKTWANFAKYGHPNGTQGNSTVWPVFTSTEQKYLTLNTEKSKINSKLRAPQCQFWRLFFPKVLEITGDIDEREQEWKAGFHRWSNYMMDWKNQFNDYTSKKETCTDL

[6] = organism: Homo sapiens; assay: Selectivity index, ratio of IC50 for human recombinant MAO-A to IC50 for human recombinant MAO-B
[7] = molecular target: T1, Amine oxidase [flavin-containing] B (Homo sapiens, UniProt P27338)
T1 sequence (P27338 whole entry): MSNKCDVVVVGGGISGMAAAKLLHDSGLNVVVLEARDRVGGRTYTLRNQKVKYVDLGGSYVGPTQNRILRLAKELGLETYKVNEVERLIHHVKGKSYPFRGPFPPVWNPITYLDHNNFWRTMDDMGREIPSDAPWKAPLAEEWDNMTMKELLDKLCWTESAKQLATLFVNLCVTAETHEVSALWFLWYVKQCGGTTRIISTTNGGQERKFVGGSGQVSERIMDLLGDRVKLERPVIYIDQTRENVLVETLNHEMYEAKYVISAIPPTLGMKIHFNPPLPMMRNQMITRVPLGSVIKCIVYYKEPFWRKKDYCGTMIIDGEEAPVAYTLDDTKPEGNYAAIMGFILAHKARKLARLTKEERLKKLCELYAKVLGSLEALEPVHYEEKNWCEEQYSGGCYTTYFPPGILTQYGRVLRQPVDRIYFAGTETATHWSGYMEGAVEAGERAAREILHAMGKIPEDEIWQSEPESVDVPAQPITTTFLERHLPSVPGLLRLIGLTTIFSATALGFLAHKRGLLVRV
Description: Inhibition of human recombinant MAO-B using kynuramine as substrate measured after 30 mins by fluorescence assay

[8] = molecular target: T2, Amine oxidase [flavin-containing] A (Homo sapiens, UniProt P21397); assay: Inhibition of human recombinant MAO-A using kynuramine as substrate at 20 uM measured after 30 mins by fluorescence assay relative to control; conditions: 0.5 h
T2 sequence (P21397 whole entry): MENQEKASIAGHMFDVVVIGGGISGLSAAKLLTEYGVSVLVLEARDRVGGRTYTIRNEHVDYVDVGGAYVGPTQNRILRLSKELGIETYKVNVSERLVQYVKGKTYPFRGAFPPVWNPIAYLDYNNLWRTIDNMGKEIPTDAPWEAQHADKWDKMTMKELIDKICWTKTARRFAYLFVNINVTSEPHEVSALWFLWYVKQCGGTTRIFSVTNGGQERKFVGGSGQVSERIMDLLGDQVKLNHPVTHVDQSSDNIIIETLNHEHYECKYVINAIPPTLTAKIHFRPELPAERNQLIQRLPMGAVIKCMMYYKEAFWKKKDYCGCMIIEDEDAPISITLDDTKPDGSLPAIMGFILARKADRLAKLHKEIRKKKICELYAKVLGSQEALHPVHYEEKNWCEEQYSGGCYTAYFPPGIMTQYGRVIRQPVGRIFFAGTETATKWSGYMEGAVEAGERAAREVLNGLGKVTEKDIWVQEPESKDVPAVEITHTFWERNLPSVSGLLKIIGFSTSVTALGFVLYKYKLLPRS

[9] = molecular target: T1, Amine oxidase [flavin-containing] B; assay: Inhibition of human recombinant MAO-B using kynuramine as substrate at 20 uM measured after 30 mins by fluorescence assay relative to control; conditions: 0.5 h
[10] = Permeability of the compound at 100 ug/ml after 18 hrs by PAMPA assay; format: ADME; conditions: read-out: permeability
[11] = Metal chelating activity assessed as aluminium-compound complex formation at 37.5 uM in presence of AlCl3 measured after 30 mins by UV-vis spectrometry; format: physicochemical; conditions: 0.5 h
[12] = Metal chelating activity assessed as iron-compound complex formation at 37.5 uM in presence of FeSO4 measured after 30 mins by UV-vis spectrometry; format: physicochemical; conditions: 0.5 h
[13] = Metal chelating activity assessed as zinc-compound complex formation at 37.5 uM in presence of ZnCl2 measured after 30 mins by UV-vis spectrometry; format: physicochemical; conditions: 0.5 h
[14] = Metal chelating activity assessed as copper-compound complex formation at 37.5 uM in presence of CuCl2 measured after 30 mins by UV-vis spectrometry; format: physicochemical; conditions: 0.5 h
[15] = molecular target: Acetylcholinesterase (Electrophorus electricus) (UniProt O42275); assay: Mixed-type inhibition of […] AChE preincubated for 15 mins followed by addition of acetylthiocholine iodide as substrate in varying concentrations by Lineweaver-Burk reciprocal plot analysis
Acetylcholinesterase (Electrophorus electricus), sequence (O42275 24-633 limits assumed): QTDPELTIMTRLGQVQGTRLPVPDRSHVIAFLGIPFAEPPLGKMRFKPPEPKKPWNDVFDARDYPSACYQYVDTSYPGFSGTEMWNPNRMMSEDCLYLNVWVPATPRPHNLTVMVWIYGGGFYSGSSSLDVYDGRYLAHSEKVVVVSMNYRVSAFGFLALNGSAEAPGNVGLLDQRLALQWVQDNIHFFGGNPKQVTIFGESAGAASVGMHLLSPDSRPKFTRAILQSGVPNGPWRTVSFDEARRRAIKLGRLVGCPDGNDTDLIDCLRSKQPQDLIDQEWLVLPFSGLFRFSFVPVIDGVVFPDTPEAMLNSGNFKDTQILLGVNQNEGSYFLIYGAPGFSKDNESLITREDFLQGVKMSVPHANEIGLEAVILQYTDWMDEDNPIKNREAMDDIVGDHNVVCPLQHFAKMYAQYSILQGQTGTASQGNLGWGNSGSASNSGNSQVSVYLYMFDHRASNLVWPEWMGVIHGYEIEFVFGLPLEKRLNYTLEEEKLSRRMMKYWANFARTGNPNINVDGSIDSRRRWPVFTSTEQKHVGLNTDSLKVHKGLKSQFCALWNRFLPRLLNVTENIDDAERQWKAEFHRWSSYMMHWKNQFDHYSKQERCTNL

[16] = organism: Rattus norvegicus; assay: Cytotoxicity against rat PC12 cells assessed as effect on cell viability at 1 to 10 uM measured after 48 hrs by MTT assay; format: toxicity, cell-based; conditions: pc-12, 48 h
[17] = Cytotoxicity against rat PC12 cells assessed as cell viability at 100 uM measured after 48 hrs by MTT assay relative to control; format: toxicity, PC-12; conditions: read-out: Activity

Compound | inhibition [1] | Activity [2] | inhibition (INH) [3] | IC50 [4] | inhibition [5] | Ratio IC50 [6] | IC50 [7] | inhibition [8] | inhibition at 20 µM [9] | Papp at 18 h, 100 ug/ml [10] | Activity [11] | Activity [12] | Activity [13] | Activity [14] | inhibition [15] | Activity [16] | viability at 48 h, 100 µM [17]
COc1ccccc1CN(C)Cc1ccc(/C=C2\COc3cc(OC)c(OC)cc3C2=O)cc1O | 37.8% | 1.78 equiv | 67.8% | 16400 nM | 11.2% | > 19.4 | 1030 nM | 12.3% |  |  |  |  |  |  |  |  | 
COc1cc2c(cc1OC)C(=O)/C(=C/c1cccc(O)c1)CO2 | 20.1% | 1.73 equiv | 30.3% | 59300 nM | 6.18% | > 105 | 190 nM | 21.9% |  |  |  |  |  |  |  |  | 
CCN(Cc1ccccc1)Cc1ccc(/C=C2\COc3cc(OC)c(OC)cc3C2=O)cc1O | 32.7% | 1.13 equiv | 49.9% | 364 nM | < 5% | > 11.6 | 1720 nM | 15% |  |  |  |  |  |  |  |  | 
CCN(Cc1ccccc1)Cc1c(O)cccc1/C=C1\COc2cc(OC)c(OC)cc2C1=O | 8% | 1.34 equiv | 28% | 172000 nM | < 5% |  |  | 9.8% | 38.1% |  |  |  |  |  |  |  | 
CCN(CC)Cc1ccc(/C=C2\COc3cc(OC)c(OC)cc3C2=O)cc1O | 21.2% | 1.97 equiv | 40.6% | 6.8 nM | 7.72% | > 8.2 | 2430 nM | 9.5% |  |  |  |  |  |  |  |  | 
CCN(Cc1ccc(/C=C2\COc3cc(OC)c(OC)cc3C2=O)cc1O)Cc1ccccc1OC | 44% | 1.8 equiv | 65.8% | 15700 nM | 22.7% | > 13.3 | 1500 nM | 14% |  | 6.05 ×10⁻⁶ cm/s |  |  |  |  |  |  | 
CCN(Cc1ccc(/C=C2\COc3cc(OC)c(OC)cc3C2=O)cc1O)Cc1ccccc1N(C)C | 59.6% | 0.97 equiv | 79.9% | 18100 nM | 44.6% | > 14.9 | 1340 nM | 28.3% |  | 10.5 ×10⁻⁶ cm/s | Active | Active | Active | Active |  |  | 
COc1cc2c(cc1OC)C(=O)/C(=C/c1ccc(CN3CCOCC3)c(O)c1)CO2 | 28.3% | 1.35 equiv | 38.7% | 1290 nM | < 5% | > 19.8 | 1010 nM | 23% |  |  |  |  |  |  |  |  | 
COc1cc2c(cc1OC)C(=O)/C(=C/c1ccc(CN3CCCC3)c(O)c1)CO2 | 37.3% | 1.65 equiv | 36.5% | 362 nM | 24.1% | > 27.7 | 722 nM | 16.4% |  | 11.1 ×10⁻⁶ cm/s |  |  |  |  |  |  | 
COc1ccccc1CN(C)Cc1c(O)cccc1/C=C1\COc2cc(OC)c(OC)cc2C1=O | 35.6% | 1.69 equiv | 54.9% | 33300 nM | 16% |  |  | 9.8% | 43.9% |  |  |  |  |  |  |  | 
COc1cc2c(cc1OC)C(=O)/C(=C/c1ccc(CN3CCCCC3)c(O)c1)CO2 | 39.3% | 2.25 equiv | 47% | 2.49 nM | 19.8% | > 11.5 | 1740 nM | 24.6% |  | 10.4 ×10⁻⁶ cm/s | Active | Active |  | Active | Active | Non-Toxic | 63.4%
COc1cc2c(cc1OC)C(=O)/C(=C/c1ccc(CN(C)Cc3ccccc3)c(O)c1)CO2 | 7.7% | 1.57 equiv | 42.6% | 1990 nM | < 5% | > 17.4 | 1150 nM | 3.4% |  |  |  |  |  |  |  |  | 
COc1cc2c(cc1OC)C(=O)/C(=C/c1cccc(O)c1CN1CCOCC1)CO2 | 7.8% | 1.52 equiv | 32.4% | 85900 nM | 7.85% |  |  | 2.1% | 18.6% |  |  |  |  |  |  |  | 
COc1cc2c(cc1OC)C(=O)/C(=C/c1ccc(O)c(CN3CCCCC3)c1)CO2 | 41.4% | 2.32 equiv | 49% | 928 nM | < 5% | > 1.4 | 14000 nM | 17% |  |  |  |  |  |  |  |  | 
COc1cc2c(cc1OC)C(=O)/C(=C/c1ccc(CN3CCN(C)CC3)c(O)c1)CO2 | 41.9% | 2.11 equiv | 40.5% | 6260 nM | < 5% | > 21.9 | 915 nM | 40.5% |  |  |  |  |  |  |  |  | 
COc1cc2c(cc1OC)C(=O)/C(=C/c1ccc(CN(C)C)c(O)c1)CO2 | 35.2% | 1.71 equiv | 42.2% | 536 nM | < 5% | > 22.7 | 882 nM | 8.2% |  |  |  |  |  |  |  |  | 
COc1cc(/C=C/C(=O)CC(=O)/C=C/c2ccc(O)c(OC)c2)ccc1O [CURCUMIN] |  |  | 67.2% |  |  |  |  |  |  |  |  |  |  |  |  |  | 
COc1cc2c(cc1OC)C(=O)/C(=C/c1cccc(O)c1CN1CCN(C)CC1)CO2 | 26.8% | 1.83 equiv | 36.3% | 84100 nM | < 5% |  |  | 6.8% | 29.8% |  |  |  |  |  |  |  | 
CCN(CC)Cc1c(O)cccc1/C=C1\COc2cc(OC)c(OC)cc2C1=O | 20.1% | 2.05 equiv | 29.1% | 37400 nM | 6.31% |  |  | 8.5% | 36.7% |  |  |  |  |  |  |  | 
